Values joined by “and” are separate entries in the source; they are usually repeats but may differ in a detail not shown here. Equal entries are not always repeated. Inconclusive results and toxic doses are left out. Rule as the data show it: active = T/C of 150% or more; inactive = T/C below 125%.
System: L1210 leukemia ip in BDF1 mice, survival T/C
Experiment: NCI In Vivo Anticancer Drug Screen. Data for tumor model L1210 Leukemia (intraperitoneal) in B6D2F1 (BDF1) mice
Details: endpoint: mean survival time, higher = longer survival
How it was run: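 Tumor was transplanted into mice, which were then dosed with test compound or vehicle alone. Survival was recorded for each group, and the treated figure was expressed relative to the control figure.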

[1] = dose: 100.0 mg/kg/injection, schedule: Q01DX009 (ip), vehicle: saline with Tween-80
[2] = dose: 200.0 mg/kg/injection, schedule: Q01DX009 (ip), vehicle: saline with Tween-80
[3] = dose: 400.0 mg/kg/injection, schedule: Q01DX009 (ip), vehicle: saline with Tween-80
[4] = dose: 100.0 mg/kg/injection, schedule: Q04DX003 (ip), vehicle: Klucel (hydroxypropylcellulose) (HPC)
[5] = dose: 200.0 mg/kg/injection, schedule: Q04DX003 (ip), vehicle: Klucel (hydroxypropylcellulose) (HPC)
[6] = dose: 100.0 mg/kg/injection, schedule: Q04DX003 (ip), vehicle: saline with Tween-80
[7] = dose: 200.0 mg/kg/injection, schedule: Q04DX003 (ip), vehicle: saline with Tween-80
[8] = dose: 100.0 mg/kg/injection, schedule: Q04DX003 (ip), vehicle: saline
[9] = dose: 200.0 mg/kg/injection, schedule: Q04DX003 (ip), vehicle: saline
[10] = dose: 400.0 mg/kg/injection, schedule: Q04DX003 (ip), vehicle: saline with Tween-80
[11] = dose: 100.0 mg/kg/injection, schedule: Q01DX001 (ip), vehicle: carboxymethylcellulose (CMC)
[12] = dose: 200.0 mg/kg/injection, schedule: Q01DX001 (ip), vehicle: carboxymethylcellulose (CMC)
[13] = dose: 400.0 mg/kg/injection, schedule: Q01DX001 (ip), vehicle: carboxymethylcellulose (CMC)
[14] = dose: 400.0 mg/kg/injection, schedule: Q04DX003 (ip), vehicle: Klucel (hydroxypropylcellulose) (HPC)
[15] = dose: 50.0 mg/kg/injection, schedule: Q01DX001 (ip), vehicle: carboxymethylcellulose (CMC)

Measured: T/C

O=C(O)C1C2C=CC(C2)C1C(=O)O (stereo unspecified)
inactive: [1] 97 % of control | [2] 96 % of control | [3] 98 % of control

CCCCN(CCCCS(=O)(=O)O)c1ccc(N=Nc2cc(Cl)ccc2Cl)cc1
inactive: [4] 94 % of control | [5] 105 % of control

CC(Br)c1ccc(S(=O)(=O)F)cc1 (stereo unspecified)
inactive: dose: 100.0 mg/kg/injection, schedule: Q04DX002 (ip), vehicle: saline with Tween-80 104 % of control | dose: 200.0 mg/kg/injection, schedule: Q04DX002 (ip), vehicle: saline with Tween-80 101 % of control

Nc1[nH]c(=O)ncc1-c1ccccc1Cl
inactive: dose: 25.0 mg/kg/injection, schedule: Q01DX009 (ip), vehicle: saline with Tween-80 88 % of control | dose: 25.0 mg/kg/injection, schedule: Q04DX002 (ip), vehicle: saline with Tween-80 92 % of control and 100 % of control | dose: 25.0 mg/kg/injection, schedule: Q04DX003 (ip), vehicle: saline with Tween-80 93 % of control | dose: 50.0 mg/kg/injection, schedule: Q01DX001 (ip), vehicle: saline with Tween-80 101 % of control | dose: 50.0 mg/kg/injection, schedule: Q01DX009 (ip), vehicle: saline with Tween-80 91 % of control | dose: 50.0 mg/kg/injection, schedule: Q04DX002 (ip), vehicle: saline with Tween-80 101 % of control and 103 % of control | dose: 50.0 mg/kg/injection, schedule: Q04DX003 (ip), vehicle: saline with Tween-80 92 % of control | dose: 100.0 mg/kg/injection, schedule: Q01DX001 (ip), vehicle: saline with Tween-80 101 % of control | [1] 94 % of control and 91 % of control | [6] 103 % of control | [7] 101 % of control

CCCCC(CC)C(=O)C(CCN(C)C)(c1ccccc1)c1ccccn1 (stereo unspecified)
inactive: dose: 44.0 mg/kg/injection, schedule: Q01DX Z (ip), vehicle: methylcellulose (MC) 101 % of control | dose: 66.0 mg/kg/injection, schedule: Q01DX Z (ip), vehicle: methylcellulose (MC) 97 % of control | dose: 100.0 mg/kg/injection, schedule: Q01DX Z (ip), vehicle: methylcellulose (MC) 96 % of control

COCCCN=C(N)N
inactive: dose: 50.0 mg/kg/injection, schedule: Q04DX003 (ip), vehicle: saline 98 % of control | [8] 104 % of control | [9] 104 % of control

CCCCCCCCC(=O)CCCCCC
inactive: [1] 99 % of control | [6] 105 % of control | [2] 97 % of control | [7] 108 % of control | [3] 99 % of control | [10] 101 % of control

O=CNc1cccc2c1-c1ccccc1C2=O
inactive: [11] 96 % of control | [12] 91 % of control | [13] 99 % of control

O=c1[nH]nc(S(=O)(=O)c2ccccc2)c(=O)[nH]1
inactive: [11] 95 % of control | [12] 95 % of control | [13] 95 % of control

O=C(NCCCl)NCC1CCCCO1 (stereo unspecified)
inactive: dose: 100.0 mg/kg/injection, schedule: Q01DX001 (ip), vehicle: Klucel (hydroxypropylcellulose) (HPC) 100 % of control | dose: 100.0 mg/kg/injection, schedule: Q01DX009 (ip), vehicle: Klucel (hydroxypropylcellulose) (HPC) 108 % of control | dose: 200.0 mg/kg/injection, schedule: Q01DX001 (ip), vehicle: Klucel (hydroxypropylcellulose) (HPC) 98 % of control | dose: 200.0 mg/kg/injection, schedule: Q01DX009 (ip), vehicle: Klucel (hydroxypropylcellulose) (HPC) 108 % of control | dose: 400.0 mg/kg/injection, schedule: Q01DX001 (ip), vehicle: Klucel (hydroxypropylcellulose) (HPC) 86 % of control | dose: 400.0 mg/kg/injection, schedule: Q01DX009 (ip), vehicle: Klucel (hydroxypropylcellulose) (HPC) 101 % of control

CN(C)C(=O)Sc1ccc(S(=O)(=O)F)cc1Cl
inactive: [4] 101 % of control | [5] 106 % of control | [14] 101 % of control

COc1ccc2c(c1OC)C(=O)OC2c1ccc(O)c(Br)c1 (stereo unspecified)
inactive: dose: 100.0 mg/kg/injection, schedule: Q01DX009 (ip), vehicle: alcohol 95 % of control | [8] 109 % of control | dose: 200.0 mg/kg/injection, schedule: Q01DX009 (ip), vehicle: alcohol 97 % of control | [9] 106 % of control | dose: 400.0 mg/kg/injection, schedule: Q01DX009 (ip), vehicle: alcohol 95 % of control | dose: 400.0 mg/kg/injection, schedule: Q04DX003 (ip), vehicle: saline 101 % of control

O=C(C#Cc1ccccc1)[O][Sn]([c]1ccccc1)([c]1ccccc1)[c]1ccccc1
inactive: dose: 1.56 mg/kg/injection, schedule: Q01DX009 (ip), vehicle: saline 102 % of control | dose: 3.12 mg/kg/injection, schedule: Q01DX009 (ip), vehicle: saline 94 % of control | dose: 6.25 mg/kg/injection, schedule: Q01DX009 (ip), vehicle: saline 96 % of control and 108 % of control

O=NN(CCCCl)C(=O)Nc1ccc(NC(=O)N(CCCCl)N=O)cc1
inactive: dose: 12.5 mg/kg/injection, schedule: Q01DX001 (ip), vehicle: carboxymethylcellulose (CMC) 111 % of control | dose: 25.0 mg/kg/injection, schedule: Q01DX001 (ip), vehicle: carboxymethylcellulose (CMC) 109 % of control | [15] 106 % of control | [11] 117 % of control | [12] 111 % of control | dose: 300.0 mg/kg/injection, schedule: Q01DX001 (ip), vehicle: carboxymethylcellulose (CMC) 111 % of control | [13] 106 % of control | dose: 500.0 mg/kg/injection, schedule: Q01DX001 (ip), vehicle: carboxymethylcellulose (CMC) 106 % of control | dose: 600.0 mg/kg/injection, schedule: Q01DX001 (ip), vehicle: carboxymethylcellulose (CMC) 109 % of control | dose: 800.0 mg/kg/injection, schedule: Q01DX001 (ip), vehicle: carboxymethylcellulose (CMC) 112 % of control | dose: 1000.0 mg/kg/injection, schedule: Q01DX001 (ip), vehicle: carboxymethylcellulose (CMC) 114 % of control

Clc1ccc2c(c1)Cc1cc(Cl)cc(Cl)c1-2
inactive: [4] 98 % of control | [5] 100 % of control | [14] 96 % of control

O=C(Nc1ccc(Cl)cc1Cl)c1ccc2c(c1)C(=O)OC2=O
inactive: [1] 90 % of control | [2] 92 % of control | [3] 92 % of control

c1ccc(-c2n[nH]c(-c3ccccc3)c2-c2ccccc2)cc1
inactive: [6] 92 % of control | [7] 100 % of control | [10] 95 % of control

O=C(Cn1ccc(O)cc1=O)N1CCOCC1
inactive: dose: 100.0 mg/kg/injection, schedule: Q01DX009 (ip), vehicle: water 105 % of control | dose: 100.0 mg/kg/injection, schedule: Q04DX003 (ip), vehicle: water 101 % of control | dose: 200.0 mg/kg/injection, schedule: Q01DX009 (ip), vehicle: water 100 % of control | dose: 200.0 mg/kg/injection, schedule: Q04DX003 (ip), vehicle: water 106 % of control | dose: 400.0 mg/kg/injection, schedule: Q01DX009 (ip), vehicle: water 103 % of control | dose: 400.0 mg/kg/injection, schedule: Q04DX003 (ip), vehicle: water 94 % of control

O=C(O)c1ccc(SSc2ccc(C(=O)O)cc2)cc1
inactive: dose: 25.0 mg/kg/injection, schedule: Q01DX009 (ip), vehicle: carboxymethylcellulose (CMC) 93 % of control and 100 % of control | dose: 25.0 mg/kg/injection, schedule: Q04DX002 (ip), vehicle: carboxymethylcellulose (CMC) 96 % of control and 103 % of control | dose: 50.0 mg/kg/injection, schedule: Q01DX009 (ip), vehicle: carboxymethylcellulose (CMC) 97 % of control and 98 % of control | dose: 50.0 mg/kg/injection, schedule: Q04DX002 (ip), vehicle: carboxymethylcellulose (CMC) 94 % of control and 90 % of control | dose: 50.0 mg/kg/injection, schedule: Q04DX003 (ip), vehicle: carboxymethylcellulose (CMC) 98 % of control and 89 % of control | [11] 93 % of control and 88 % of control | dose: 100.0 mg/kg/injection, schedule: Q01DX009 (ip), vehicle: carboxymethylcellulose (CMC) 92 % of control and 94 % of control and 100 % of control | dose: 100.0 mg/kg/injection, schedule: Q04DX003 (ip), vehicle: carboxymethylcellulose (CMC) 110 % of control and 89 % of control | [12] 97 % of control and 100 % of control | dose: 200.0 mg/kg/injection, schedule: Q04DX002 (ip), vehicle: carboxymethylcellulose (CMC) 97 % of control | dose: 200.0 mg/kg/injection, schedule: Q04DX003 (ip), vehicle: carboxymethylcellulose (CMC) 88 % of control and 91 % of control | [13] 110 % of control

CN=NNc1nc[nH]c1C(=O)OC
inactive: [15] 118 % of control | [11] 118 % of control | [12] 118 % of control | [13] 113 % of control

— PubChem BioAssay AID248 (DTP/NCI, 2004)
